Biological target: T1, hT1R2/hT1R3 (Homo sapiens, UniProt Q7RTX0+Q8TE23)
T1 construct: expressed in transfected cells
T1 sequence (Q8TE23 20-839): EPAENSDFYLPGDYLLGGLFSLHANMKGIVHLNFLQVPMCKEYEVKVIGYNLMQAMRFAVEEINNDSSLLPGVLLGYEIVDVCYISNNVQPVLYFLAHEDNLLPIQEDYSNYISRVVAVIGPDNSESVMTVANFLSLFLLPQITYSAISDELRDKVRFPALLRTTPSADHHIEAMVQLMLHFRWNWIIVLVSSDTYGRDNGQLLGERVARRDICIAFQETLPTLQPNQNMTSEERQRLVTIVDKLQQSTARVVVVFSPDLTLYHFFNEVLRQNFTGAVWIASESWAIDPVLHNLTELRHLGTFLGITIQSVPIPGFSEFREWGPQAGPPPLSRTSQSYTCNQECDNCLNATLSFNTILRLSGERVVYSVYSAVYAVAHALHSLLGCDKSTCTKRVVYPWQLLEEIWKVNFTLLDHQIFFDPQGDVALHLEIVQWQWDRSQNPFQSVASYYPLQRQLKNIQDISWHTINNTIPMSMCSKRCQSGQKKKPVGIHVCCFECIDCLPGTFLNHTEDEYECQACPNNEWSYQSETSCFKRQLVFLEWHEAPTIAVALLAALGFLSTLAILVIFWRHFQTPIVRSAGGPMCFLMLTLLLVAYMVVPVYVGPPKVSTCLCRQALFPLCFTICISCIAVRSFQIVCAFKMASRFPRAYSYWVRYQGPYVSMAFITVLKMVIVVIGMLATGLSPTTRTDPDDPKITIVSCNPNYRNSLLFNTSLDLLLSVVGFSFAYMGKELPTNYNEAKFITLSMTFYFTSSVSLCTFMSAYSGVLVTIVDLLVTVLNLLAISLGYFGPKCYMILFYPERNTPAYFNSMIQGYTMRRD
T1 sequence (Q7RTX0 21-852): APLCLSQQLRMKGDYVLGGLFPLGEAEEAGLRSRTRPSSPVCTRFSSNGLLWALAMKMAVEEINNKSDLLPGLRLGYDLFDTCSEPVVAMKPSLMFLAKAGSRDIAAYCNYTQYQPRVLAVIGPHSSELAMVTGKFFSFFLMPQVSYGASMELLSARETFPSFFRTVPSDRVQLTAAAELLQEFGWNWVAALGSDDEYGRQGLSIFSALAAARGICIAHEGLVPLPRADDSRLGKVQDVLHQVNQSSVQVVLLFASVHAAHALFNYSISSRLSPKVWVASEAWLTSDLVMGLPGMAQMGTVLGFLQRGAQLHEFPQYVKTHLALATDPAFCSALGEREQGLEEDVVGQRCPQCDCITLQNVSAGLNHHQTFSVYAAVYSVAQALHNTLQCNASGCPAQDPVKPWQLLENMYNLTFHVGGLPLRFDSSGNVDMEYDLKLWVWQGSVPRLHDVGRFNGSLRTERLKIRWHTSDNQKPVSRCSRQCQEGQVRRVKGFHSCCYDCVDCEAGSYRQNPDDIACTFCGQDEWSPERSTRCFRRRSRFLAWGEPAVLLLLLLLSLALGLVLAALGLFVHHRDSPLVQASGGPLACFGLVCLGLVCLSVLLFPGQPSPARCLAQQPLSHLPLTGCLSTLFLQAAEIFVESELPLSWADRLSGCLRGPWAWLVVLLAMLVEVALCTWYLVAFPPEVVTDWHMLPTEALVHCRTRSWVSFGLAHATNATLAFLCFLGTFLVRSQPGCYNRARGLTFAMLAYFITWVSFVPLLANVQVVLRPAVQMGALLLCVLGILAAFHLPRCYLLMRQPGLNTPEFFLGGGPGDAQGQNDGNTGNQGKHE
Assay: Effect of anions, cations and osmotic pressure on cellular responses, cells in 10 mM Cl- buffer, hT1R2/hT1R3
Assay type: cell-based
Details: for cellular response to the salt alone: without agonist, cells in 10 mM Cl- buffer
Experimental: Cells were seeded in 96-well plates coated with ε-poly-L-lysine at approximately 70,000 cells per well. […] Fluorescence changes were monitored at 2 s intervals, as described above. […] Three independent experiments were conducted for each receptor, and representative results are shown as the mean ± SEM (n = 3 replicates). Statistical tests were conducted using KyPlot version 6.0 (KyensLab Inc., Tokyo, Japan). Statistical significance was set at p < 0.05.

Compound: O=C([O-])[C@H](O)[C@@H](O)[C@H](O)[C@H](O)CO.[Na+] [Na-gluconate, sodium gluconate]
- cellular response to the salt alone: neither NaCl nor Na-gluconate alone elicited cellular responses

Compound: [Cl-].[Na+] [NaCl]
- response intensity to sucralose on coapplication of the salt at higher concentrations (coapplied with 150 µM sucralose, above 60 mM final [Cl-]o or equivalent osmotic pressure): decreased
- response intensity to sucralose on coapplication of the salt (coapplied with 150 µM sucralose, up to 60 mM [Cl-]o, compared to response at 10 mM [Cl-]o): no significant difference
- cellular response to the salt alone: neither NaCl nor Na-gluconate alone elicited cellular responses

From PMC10539361, “Allosteric modulation of the fish taste receptor type 1 (T1R) family by the extracellular chloride ion” (Scientific Reports, 2023)
